Assay results from US9226905B2 (SAMSUNG ELECTRONICS CO., LTD., priority 2011, dated 2016).

How the values were obtained:
[1] = test system: blood creatine kinase level; assay: Measurement of blood creatine kinase (CK) level; conditions: administered for 3 months
[2] = Water intake of mice on administration of autoclaved DDS; conditions: male mice, at 4-day intervals for 3 months
[3] = test system: mouse muscles (SOL and EDL); assay: Measurement of twitch isometric force; format: in vivo, C57BL/6J mice; conditions: SOL and EDL separated from treated mice, 0.2 Hz (100V) twitch stimulation
Experimental: One end of the tendons was anchored to a tissue bath, which was filled with Ringer's solution and to which oxygen was smoothly supplied, and the other end was anchored to a FT03 isometric force transducer (Grass instruments, West Warwick, USA). The twitch and tetanus of the muscle were adjusted by the intensity of electric stimulation. The muscle was stabilized in Ringer's solution for 10 minutes, and then an experiment for muscle contraction function was carried out. To maximize the function of the muscle, the length of the muscle showing the highest response at 0.2 Hz (100V), twitch stimulation, was measured and assigned as Lo.

[4] = mouse, in vivo, 2 mg/kg
[5] = test system: Caenorhabditis elegans; conditions: reported; cited from earlier work
[6] = test system: bacterial growth; assay: Bacterial growth inhibitory activity of autoclaved DDS; format: cell-based; conditions: DDS added to bacterial medium and autoclaved, compared with control
Experimental: Specifically, DDS was added to a bacterial medium and autoclaved, and then compared with a control.

[7] = test system: grip strength of mice; assay: Measurement of grip strength; format: in vivo, C57BL/6J mice; conditions: 2 mg/kg, 3 months
Experimental: To measure the grip strength of the mice, a grip strength meter (Bioseb) was used. The grip strength of the mice was measured by positioning the mice to grab the grid plate with the forelimbs, slowly pulling the tail in a horizontal direction, and determining the value at the time at which the forelimbs were detached from the grid.

[8] = test system: gastrocnemius (GA) and tibialis anterior (TA) muscle weight; assay: Muscle weight of GA and TA; format: in vivo, C57BL/6J mice; conditions: aged mice (23-month-old and 30-month-old), female and male, 2 mg/kg, 3 months
Experimental: (§1) In order to separate muscle from the mice, the mice were anesthetized by injection with sodium pentobarbital (100 mg/kg bodyweight). One gastrocnemius (GA) and one tibialis anterior (TA) were carefully separated from the hindlimb of each mouse, so that the muscle was not damaged, and the weight of each of the separated muscles was measured.

[9] = test system: soleus (SOL) and extensor digitorum longus (EDL) muscle weight; assay: Muscle weight of SOL and EDL; format: in vivo, C57BL/6J mice; conditions: aged mice (23-month-old and 30-month-old), female and male, 2 mg/kg, 3 months
Experimental: as §1, with “body weight).” for “bodyweight).”, “soleus (SOL)” for “gastrocnemius (GA)”, “extensor digitorum longus (EDL)” for “tibialis anterior (TA)”

[10] = test system: mouse muscles (SOL and EDL); assay: Measurement of tetanus isometric force; format: in vivo, C57BL/6J mice; conditions: SOL 150 Hz, 100V, 800 ms, EDL 100 Hz, 400 ms
Excerpt: In the muscle contraction stimulation system, SOL muscle formed the peak plateau under the conditions of 150 Hz, 100 V and 800 ms. […] In this Example, the mice used in Example 6 were used. The mice were rested for a sufficient time after twitch stimulation, and then tetanic stimulation was applied to the mice. As stimulation at the time of formation of a stable graph in which the peak forms the plateau, 150 Hz (100V, 800 ms stimulation time) was used for Soleus, and 100 Hz (100V, 400 ms stimulation time) was used for EDL. Each of these values was used as the peak Isometric force for each muscle, and the results are plotted in unit of mN and shown in FIG. 9.

[11] = female mice, vs negative control

| Structure (SMILES) | blood creatine kinase level [1, 11] | water intake [2] | blood creatine kinase level ([1]; 18-month-old or older mice, 2 mg/kg) | muscle twitch force (reduced with aging) [3] | water intake vs control group [4] | increase of life span of Caenorhabditis elegans [5] | bacterial growth inhibitory activity [6] | grip strength ([7]; 18-month-old female mice) | grip strength ([7]; 23-month-old or older female mice) | grip strength ([7]; male mice) | weight of GA [8] | weight of TA [8] | weight of EDL [9] | weight of SOL [9] | muscle tetanic force (reduced with aging) [10] |
| --- | --- | --- | --- | --- | --- | --- | --- | --- | --- | --- | --- | --- | --- | --- | --- |
| CC(C)(C)NCC(O)c1cc(Cl)c(N)c(Cl)c1 (stereo not shown) [Clenbuterol] | equal to or higher than that of the negative control | increased | – | – | – | – | – | – | – | – | – | – | – | – | – |
| Nc1ccc(S(=O)(=O)c2ccc(N)cc2)cc1 [DDS, diaminodiphenylsulfone] | significantly reduced | – | effectively decreases | effectively restored | did not significantly differ | 20-30% | maintained | not distinct | significantly restored | increased | restored | restored | restored | restored | effectively restored |
